Measurements: publication PMC8592624, “Rapid and improved oral absorption of N-butylphthalide by sodium cholate-appended liposomes for efficient ischemic stroke therapy” (Drug Delivery, 2021)

Tests used:
[1] = In vitro drug release (dialysis method); assay type: physicochemical
Description: The release curves of the formulations were obtained using a dialysis method (Zhang et al., [2011]). […] The following procedures were performed as above.

Pharmacokinetics in rats = assay type: in vivo, Sprague-Dawley rats
Description: Male Sprague-Dawley rats (250 ± 20 g) were obtained from the laboratory animal center of Zhengzhou University (Zhengzhou, China). The animal experiments were conducted in accordance with the Regional Ethics Committee and protocols from the Institutional Animal Care and Use Committee of Zhengzhou University. Rats were fasted overnight with free access of water before the pharmacokinetic studies. To begin with, rats were randomly assigned into three groups. […] 0.5 mL of blood was taken from rats by retro-orbital sinus at 0.083, 0.25, 0.5, 1, 2, 3, 4, 6, 8, and 10 h after administration, respectively. The concentration of NBP in plasma was determined by HPLC after suitable processing. Briefly, 300 µL methanol was mixed with 100 µL of plasma and the resultant suspension was centrifuged (12,000 rpm, 10 min). The supernatant obtained was analyzed by a validated HPLC method (Supplementary Table 2). The pharmacokinetic parameters were obtained using DAS 3.0 software (Mathematical Pharmacology Professional Committee of China) and were presented as mean ± SD. The absolute bioavailability (Fa) and the relative bioavailability (Fr) were calculated by the following equations, respectively: (4) Fa (%)=AUC0−t, oralDosei.v/AUC0−t, i.vDoseoral (5) Fr (%)=AUC0−t, formulation/AUC0−t, NBP suspension
Where AUC0−t represents the area under the pharmacokinetic curve throughout the study.

[2] = Biodistribution in rats after oral administration; assay type: in vivo; conditions: p.o., 30 mg/kg, during 2 h
Description: Before the start of the experiment, rats were fasted while allowed to drink freely overnight. […] Rats were sacrificed 0.083, 0.25, 0.5, 1 and 2 h post-administration, and subsequently, the vital organs involving heart, liver, spleen, kidney, lung as well as brain were harvested and processed by following procedures. In brief, the harvest tissues were weighed and homogenized in cold saline. The obtained tissue lysates (100 μL) was methanol precipitated and centrifuged (4 °C, 15 min) followed by injection of the supernatant (50 μL) into HPLC. The NBP concentration in each tissue sample was calculated from the respective standard curves. […] Re= AUC0−t, tissue, formulation/AUC0−t, tissue, NBP suspension (Wang et al., [2014]) Ce=Cmax, tissue, formulation/Cmax, tissue, NBP suspension (Wang et al., [2021])

[3] = system: cerebral ischemia/reperfusion (I/R) model; assay: Cerebral ischemia/reperfusion (I/R) model, middle cerebral artery occlusion (MCAO); assay type: in vivo; conditions: MCAO rats, 30 mg/kg p.o.
Description: Rats (280-320 g) were divided into five groups randomly (n = 10 per group): […] After lateral neck incision, the internal carotid artery, right common carotid artery […] and external carotid artery were exposed. A surgical nylon suture was gently advanced to occlude MCA until slight resistance was felt (18-20 mm from MCA bifurcation). 1.5 hours post MCAO, reperfusion was inducted by taking out the suture and the rats were immediately orally given the predetermined formulations. The sham operated group received the same surgery in the […] of the MCAO and drug treatment. The core body temperature was kept constant (37 ± 0.5 °C) for 24 h post reperfusion. Neurological deficit of rats was then assessed by the blinded Longa's method. […] The cerebral infarct area (White) was analyzed by Image-J and represented as a percentage of the total brain area. Histological alterations of brain samples from the remaining rats were analyzed via hematoxylin and esosin (H&E) staining and then observed under a microscope. The levels of malondialdehyde (MDA), superoxide dismutase (SOD) and glutathione peroxidase (GSH-Px) in brain lysates were determined 24 h after reperfusion according to the protocols of the specific agent kit (Servicebio, Wuhan, China).

[4] = i.v., NBP solution, 30 mg/kg, n = 5

CCCCC1OC(=O)c2ccccc21 (stereo not drawn) [NBP, N-butylphthalide]
cumulative release during 12 h ([1]; SGF pH 1.2 2 h then phosphate buffer pH 6.8, 37 °C): 6.79 ± 0.99%
cumulative drug release within 2 h ([1]; SGF pH 1.2, 37 °C, 100 rpm): about 6%
24 h cumulative drug release amount ([1]; SGF pH 1.2 then phosphate buffer pH 6.8, 37 °C): 6.79 ± 0.99%
Fa (absolute bioavailability) (Pharmacokinetics in rats; i.v., 30 mg/kg (reference)): 100%
AUC0-t (Pharmacokinetics in rats; [4]): 7590 ± 780 ng·h/mL
CLz (Pharmacokinetics in rats; [4]): 44.2 ± 4.17 mL/min/kg
Cmax (Pharmacokinetics in rats; [4]): 25510 ± 3460 ng/mL
tmax (Pharmacokinetics in rats; [4]): 4.98 min
Fa (absolute bioavailability) (Pharmacokinetics in rats; p.o., 30 mg/kg): 21.7%
Fr (relative bioavailability to NBP suspension) (Pharmacokinetics in rats; p.o., 30 mg/kg): 100%
time at which Cmax was observed on plasma curve (Pharmacokinetics in rats; p.o., 30 mg/kg, Figure 3(B)): 2 h
AUC0-t (Pharmacokinetics in rats; p.o., 30 mg/kg, n = 5): 1650 ± 320 ng·h/mL
Cmax (Pharmacokinetics in rats; p.o., 30 mg/kg, n = 5): 360 ± 130 ng/mL
tmax (Pharmacokinetics in rats; p.o., 30 mg/kg, n = 5): 61.2 ± 18.6 min
CLz (Pharmacokinetics in rats; p.o., 30 mg/kg, n = 5, apparent clearance (CL/F)): 201.8 ± 62.7 mL/min/kg
organ of main accumulation [2]: mainly in the lung
neurological score compared with I/R group ([3]; 24 h): no significant difference
infarct volume ([3]; TTC staining, percentage of total brain area): 27.66 ± 2.59%
